Results published in patent US7196119B2, “Development of new selective estrogen receptor modulators” (The Regents of the University of California, priority 2003, dated 2007).
Entries after “also recorded” stand apart in the source; their conditions may differ. Where two headings read alike, the source gives them in different places.

Tests used:
full length (ER)β = biological target: T1, full length (ER)β (Homo sapiens, UniProt Q92731); test: Estrogen receptor binding assay (spin column, [3H]estradiol competition)
T1 construct: to full length (ER)α or (ER)β*; purchased Pan Vera Corp, Madison, Wis., USA
T1 sequence (Q92731 whole entry): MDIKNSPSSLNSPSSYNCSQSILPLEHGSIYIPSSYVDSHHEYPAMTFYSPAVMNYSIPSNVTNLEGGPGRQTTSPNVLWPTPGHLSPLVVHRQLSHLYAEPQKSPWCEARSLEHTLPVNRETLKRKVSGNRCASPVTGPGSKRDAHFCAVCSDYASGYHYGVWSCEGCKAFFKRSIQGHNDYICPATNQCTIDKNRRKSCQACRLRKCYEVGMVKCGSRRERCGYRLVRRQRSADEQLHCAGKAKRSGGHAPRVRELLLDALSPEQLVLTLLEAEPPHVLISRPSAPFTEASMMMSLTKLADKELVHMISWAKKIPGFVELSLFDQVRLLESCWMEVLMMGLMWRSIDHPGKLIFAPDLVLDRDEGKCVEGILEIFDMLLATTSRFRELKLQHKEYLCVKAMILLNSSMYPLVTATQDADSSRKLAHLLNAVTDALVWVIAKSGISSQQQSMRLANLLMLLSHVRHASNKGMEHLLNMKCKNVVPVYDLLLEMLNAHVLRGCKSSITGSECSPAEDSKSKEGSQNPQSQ

[1] = tested on: GABAB receptor-mediated outward current in hypothalamic arcuate neurons (membrane associated estrogen receptor); test: Whole-cell patch voltage clamp: attenuation of the baclofen-induced GABAB response (GIRK outward current) in hypothalamic slices; assay type: cell-based, guinea pig
full length (ER)α = biological target: T2, full length (ER)α (Homo sapiens, UniProt P03372); test: Estrogen receptor binding assay (spin column, [3H]estradiol competition)
T2 construct: purchased Pan Vera Corp, Madison, Wis., USA
T2 sequence (P03372 1-595): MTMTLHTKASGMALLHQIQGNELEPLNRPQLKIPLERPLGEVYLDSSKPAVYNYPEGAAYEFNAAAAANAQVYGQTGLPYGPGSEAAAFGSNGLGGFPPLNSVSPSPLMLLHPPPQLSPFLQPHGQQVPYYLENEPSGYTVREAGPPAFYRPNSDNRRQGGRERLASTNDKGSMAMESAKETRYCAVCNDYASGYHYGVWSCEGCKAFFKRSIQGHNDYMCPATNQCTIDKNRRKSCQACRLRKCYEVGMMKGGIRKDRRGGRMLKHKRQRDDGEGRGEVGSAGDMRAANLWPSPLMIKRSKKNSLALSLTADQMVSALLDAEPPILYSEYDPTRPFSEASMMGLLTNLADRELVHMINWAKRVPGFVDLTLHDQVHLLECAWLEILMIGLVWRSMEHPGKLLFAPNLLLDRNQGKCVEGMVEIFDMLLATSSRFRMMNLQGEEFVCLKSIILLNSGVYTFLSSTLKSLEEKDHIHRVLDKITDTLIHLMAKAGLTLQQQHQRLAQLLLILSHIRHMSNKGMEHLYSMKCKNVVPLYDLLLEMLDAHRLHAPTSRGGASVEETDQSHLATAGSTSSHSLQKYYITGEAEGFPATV

uteri = test: Uterotropic action (uterine size/weight) in ovariectomized mice; assay type: in vivo, C57BL/6 mice
Experimental: Wild-type C57BL/6 mice in these studies were obtained from Jackson laboratories. All animals were maintained under controlled temperature (25° C.) and photoperiod conditions (14-h light, 10-h dark; lights on between 0700 and 2100) with food and water ad libitum. Adult mice were ovariectomized under isoflurane anesthesia, and allowed to recover for 1 week. […] The uteri were collected, weighed and fixed in 4% paraformaldehyde for later histological analysis (data not shown).

4-hydroxytamoxifen
Relative binding affinity (ER)β (full length (ER)β): 43%
block of the baclofen response [1]: 25%
Relative binding affinity (ER)α (full length (ER)α): 36%

C[C@]12CC[C@@H]3c4ccc(O)cc4CC[C@H]3[C@@H]1CC[C@H]2O [17α-estradiol]
effect on the baclofen (GABAB) response [1]: no effect

C[C@]12CC[C@@H]3c4ccc(O)cc4CC[C@H]3[C@@H]1CC[C@@H]2O [17β-estradiol]
R2/R1 (second over first baclofen response) [1]: 58.6±3.4%
decrease in the response to a second application of baclofen [1]: 41%
effect on the baclofen (GABAB) response [1]: no effect

CN(C)CCCn1cc(C2=C(c3c[nH]c4ccccc34)C(=O)NC2=O)c2ccccc21.Cl [BIS, bisindolylmaleimide I hydrochloride]
effect on the 17β-estradiol-induced suppression of the GABAB response [1]: nearly eliminated the effects of 17β-estradiol

CC/C(=C(\C(=O)Nc1ccc(OCCN(C)C)cc1)c1ccc(O)cc1)c1ccccc1 [Compound 8, (E,Z)-2-(4-hydroxyphenyl)-3-phenylpent-2-enoic acid [4-(2-dimethylaminoethoxy)-phenyl]amide]
uterotropic actions (uteri; 2 or 5 μg daily for 2 days): no uterotropic actions
effect on the baclofen (GABAB) response ([1]; 10 nM, applied alone): as efficacious as 100 nM 17β-estradiol; also recorded: stronger activator of this rapid 17β-estradiol response than 17β-estradiol
effect on the baclofen (GABAB) response ([1]; 10 nM, applied alone, listed as compound 8): inhibited the baclofen response
binding affinity for nuclear (ER)α compared to that of 17β-estradiol (full length (ER)α; fold reduction versus 17β-estradiol): approximately one million-fold reduced binding affinity
Relative binding affinity (ER)α (full length (ER)α; percentage of the potency of 17β-estradiol (IC50 estradiol / IC50 ligand x 100)): 4.3 × 10^−6%

Cl.Cl.O=S(=O)(NCCNC/C=C/c1ccc(Br)cc1)c1cccc2cnccc12 [Compound H89]
effect on the 17β-estradiol-induced suppression of the GABAB response ([1]; 10 μM, with 17β-estradiol): blocked

N#CC(=C(/N)Sc1ccccc1N)/C(C#N)=C(/N)Sc1ccccc1N [Compound U0126]
effect on the 17β-estradiol-induced suppression of the GABAB response ([1]; 5 μM, with 17β-estradiol): did not affect 17β-estradiol inhibition of baclofen responses

COc1ccc2c(c1)CC[C@@H]1[C@@H]2CC[C@]2(C)[C@@H](NCCCCCCN3C(=O)C=CC3=O)CC[C@@H]12 [Compound U73122]
effect on the 17β-estradiol-induced suppression of the GABAB response ([1]; 10 μM, with 17β-estradiol): blocked

COc1ccc2c(c1)CC[C@@H]1[C@@H]2CC[C@]2(C)[C@@H](NCCCCCCN3C(=O)CCC3=O)CC[C@@H]12 [Compound U73343]
effect on the 17β-estradiol-induced suppression of the GABAB response ([1]; 10 μM, with 17β-estradiol): no effect

CC/C(=C(\c1ccccc1)c1ccc(/C=C/C(=O)O)cc1)c1ccccc1 [GW-5638]
effect on the baclofen (GABAB) response ([1]; 1 μM, applied alone): significantly more efficacious than 17β-estradiol

Cn1c2ccccc2c2c3c(c4c5ccccc5n(CCC#N)c4c21)CNC3=O [Gö6976]
effect on the 17β-estradiol-induced suppression of the GABAB response ([1]; test concentration not given, with 17β-estradiol): without effect

C[C@]12CC[C@@H]3c4ccc(O)cc4C[C@@H](CCCCCCCCC[S+]([O-])CCCC(F)(F)C(F)(F)F)[C@H]3[C@@H]1CC[C@@H]2O (stereo partly shown) [ICI 182, 780]
effect on the baclofen (GABAB) response ([1]; 1 μM, applied alone): no effect
effect on the 17β-estradiol-induced suppression of the GABAB response ([1]; 1 μM, with 17β-estradiol): blocked

COc1cccc(-c2cc(=O)c3ccccc3o2)c1N [PD98059]
effect on the 17β-estradiol-induced suppression of the GABAB response ([1]; 10 μM, with 17β-estradiol): did not affect 17β-estradiol inhibition of baclofen responses
R2/R1 (second over first baclofen response) ([1]; PD98059 (10 μM, in the pipette) + 17β-estradiol, baclofen 5 μM): 66.1±11.8%

O=C(c1ccc(OCCN2CCCCC2)cc1)c1c(-c2ccc(O)cc2)sc2cc(O)ccc12 [Raloxifene, raloxifene]
effect on the baclofen (GABAB) response [1]: completely mimicked the actions of 17β-estradiol

Nc1ncnc2c1ncn2[C@@H]1O[C@@H]2COP(O)(=S)O[C@H]2[C@H]1O (stereo partly shown) [Rp-cAMP]
effect on the 17β-estradiol-induced suppression of the GABAB response ([1]; 200 μM, dialysis, with 17β-estradiol): abolished

CC/C(=C(\c1ccccc1)c1ccc(OCCN(C)C)cc1)c1ccccc1 [Tamoxifen, tamoxifen]
R2/R1 (second over first baclofen response) [1]: 60.4±6.6%
effect on the 17β-estradiol-induced suppression of the GABAB response [1]: did not attenuate the effects of 17β-estradiol
effect on the baclofen (GABAB) response [1]: inactive

C[C@]12CC[C@@H]3c4ccc(OC(=O)c5ccccc5)cc4CC[C@H]3[C@@H]1CC[C@@H]2O [estradiol benzoate]
uterine size (uteri; 1 μg daily for 2 days, compared with oil vehicle): noticeable increase in uterine size

CC(=O)c1c(O)c(C)c(O)c(Cc2c(O)c3c(c(C(=O)/C=C/c4ccccc4)c2O)OC(C)(C)C=C3)c1O [rottlerin]
effect on the 17β-estradiol-induced suppression of the GABAB response [1]: completely blocked

Ac-LGLNLKEYNLV-OH [Gq peptide]
effect on the 17β-estradiol-induced suppression of the GABAB response [1]: significantly blocked
